Reference: patent US20160199372A1, “IMIDAZOPYRIDAZINE KINASE INHIBITORS USEFUL TO TREATING A DISEASE OR DISORDER MEDIATED BY AAK1, SUCH AS ALZHEIMER'S DISEASE, BIPOLAR DISORDER, PAIN, SCHIZOPHRENIA” (Bristol-Myers Squibb Company, priority 2013, published 2016)

Key:
[1] = biological target: T1, GST-Xa-hAAK1 (Homo sapiens, UniProt Q2M2I8); assay: AAK1 Kinase Assay; type: biochemical; conditions: ATP 22 μM; GST-Xa-hAAK1 3.5 nM; 3 hours at room temperature; Caliper LabChip 3000
T1 construct: made in house
T1 sequence (Q2M2I8 whole entry): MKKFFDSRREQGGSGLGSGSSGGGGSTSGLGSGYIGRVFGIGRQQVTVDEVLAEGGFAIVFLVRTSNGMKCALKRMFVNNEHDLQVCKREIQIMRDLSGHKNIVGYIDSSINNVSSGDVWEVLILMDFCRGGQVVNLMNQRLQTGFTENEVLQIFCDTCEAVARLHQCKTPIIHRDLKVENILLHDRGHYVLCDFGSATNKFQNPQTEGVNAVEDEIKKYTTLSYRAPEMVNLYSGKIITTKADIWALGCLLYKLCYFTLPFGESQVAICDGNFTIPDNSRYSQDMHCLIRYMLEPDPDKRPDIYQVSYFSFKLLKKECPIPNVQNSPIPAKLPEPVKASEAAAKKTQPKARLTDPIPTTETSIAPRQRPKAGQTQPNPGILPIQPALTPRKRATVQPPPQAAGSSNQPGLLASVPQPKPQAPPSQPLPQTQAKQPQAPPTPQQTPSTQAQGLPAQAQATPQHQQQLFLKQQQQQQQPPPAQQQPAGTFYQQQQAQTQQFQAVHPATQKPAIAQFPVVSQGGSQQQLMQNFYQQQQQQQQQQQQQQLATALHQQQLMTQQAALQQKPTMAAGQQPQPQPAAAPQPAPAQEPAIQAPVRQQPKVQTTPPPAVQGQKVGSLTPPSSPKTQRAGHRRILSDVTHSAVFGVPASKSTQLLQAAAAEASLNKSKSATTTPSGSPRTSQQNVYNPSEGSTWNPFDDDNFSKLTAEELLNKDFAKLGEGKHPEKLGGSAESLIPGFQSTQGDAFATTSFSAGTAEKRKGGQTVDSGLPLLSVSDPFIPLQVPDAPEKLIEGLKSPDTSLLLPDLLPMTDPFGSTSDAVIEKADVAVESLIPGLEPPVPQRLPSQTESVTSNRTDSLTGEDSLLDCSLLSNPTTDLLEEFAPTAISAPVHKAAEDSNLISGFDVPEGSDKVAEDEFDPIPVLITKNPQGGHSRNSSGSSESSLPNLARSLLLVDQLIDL
Text: IC50 values were derived by non-linear regression analysis.

[2] = test system: mice; assay: formalin paw test (pain response); type: in vivo, mouse; conditions: administered 30 minutes prior to formalin injection, % response relative to gabapentin 200 mg/kg
Method: AAK1 homozygous (−/−) and their wild-type (+/+) littermates were tested using the formalin paw test in order to assess their acute and tonic nociceptive responses. For these tests, Automatic Nociception Analyzers (purchased from the Ozaki lab at University of California, San Diego) were used. A metal band was placed around the left hind paw of each mouse 30 minutes prior to testing. After the 30-minute acclimation period, 20 μl of 5% formalin is subcutaneously injected in the dorsal surface of the left hind paw. Mice were individually housed in cylindrical chambers for 45 minutes. Fresh 5% formalin solution was prepared by diluting formaldehyde (Formalde-fresh 20%, Fisher Scientific, Fair Lawn, N.J.) with distilled water. Investigatory compounds were administered 30 minutes prior to formalin injection.
A computer recorded flinches per minute, total flinches for phase I (acute phase=first 8 minutes), and total flinches for phase II (tonic phase=time between minutes 20-40 or 10-60 minutes for drug studies) through an electromagnetic field. See Yaksh T L, Ozaki G, McCumber D, Rathbun M, Svensson C, Malkmus S, Yaksh M C. An automated flinch detecting system for use in the formalin nociceptive bioassay. J Appl Physiol., 2001; 90:2386-402.
The same test was used to confirm that the administration of an AAK1 inhibitor can also affect pain response. […]

N[C@H]1CC[C@H](Nc2ccc3ncc(C(=O)Nc4cccc(-c5coc(-c6ccccc6)n5)c4)n3n2)CC1 [Example 16, 6-(trans-4-Aminocyclohexylamino)-N-(3-(2-phenyloxazol-4-yl)phenyl)imidazo[1,2-b]pyridazine-3-carboxamide]
IC50 [1]: 154 nM

CNc1cc(N[C@H]2CC[C@H](N)CC2)nn2c(C(=O)Nc3cccc(-c4nnc(C(C)C)s4)c3)cnc12 [Example 8, 6-(trans-4-Aminocyclohexylamino)-N-(3-(5-isopropyl-1,3,4-thiadiazol-2-yl)phenyl)-8-(methylamino)imidazo[1,2-b]pyridazine-3-carboxamide]
IC50 [1]: 8.9 nM

CN(C)[C@H]1CC[C@H](Nc2cc(Nc3ccccc3)c3ncc(-c4ccsc4)n3n2)CC1 [Example 19, N^6-(trans-4-(Dimethylamino)cyclohexyl)-N^8-phenyl-3-(thiophen-3-yl)imidazo[1,2-b]pyridazine-6,8-diamine]
IC50 [1]: 12 nM

Cc1nc(-c2cccc(NC(=O)c3cnc4c(Nc5ccccc5)cc(N[C@H]5CC[C@H](N)CC5)nn34)c2)cs1 [Example 7, 6-(trans-4-Aminocyclohexylamino)-N-(3-(2-methylthiazol-4-yl)phenyl)-8-(phenylamino)imidazo[1,2-b]pyridazine-3-carboxamide]
IC50 [1]: 114 nM

NCC1(CC(=O)O)CCCCC1 [Gabapentin, reference compound]
Response ([2]; 200 mg/kg sc): 73%

CC(C)c1nnc(-c2cccc(NC(=O)c3cnc4c(Nc5ccccc5)cc(N[C@H]5CC[C@H](N)CC5)nn34)c2)s1 [Example 2, 6-(trans-4-Aminocyclohexylamino)-N-(3-(5-isopropyl-1,3,4-thiadiazol-2-yl)phenyl)-8-(phenylamino)imidazo[1,2-b]pyridazine-3-carboxamide]
IC50 [1]: 11 nM

N[C@H]1CC[C@H](Nc2cc(Nc3ccccc3)c3ncc(C(=O)Nc4cccc(-c5coc(-c6ccccc6)n5)c4)n3n2)CC1 [Example 6, 6-(trans-4-Aminocyclohexylamino)-8-(phenylamino)-N-(3-(2-phenyloxazol-4-yl)phenyl)imidazo[1,2-b]pyridazine-3-carboxamide]
IC50 [1]: 940 nM

Cc1nc(-c2cccc(NC(=O)c3cnc4c(Nc5ccccc5)cc(N[C@H]5CC[C@H](N)CC5)nn34)c2)co1 [Example 5, 6-(trans-4-Aminocyclohexylamino)-N-(3-(2-methyloxazol-4-yl)phenyl)-8-(phenylamino)imidazo[1,2-b]pyridazine-3-carboxamide]
IC50 [1]: 79 nM

CC(C)c1nc(-c2cccc(NC(=O)c3cnc4c(Nc5ccccc5)cc(N[C@H]5CC[C@H](N)CC5)nn34)c2)co1 [Example 3, 6-(trans-4-Aminocyclohexylamino)-N-(3-(2-isopropyloxazol-4-yl)phenyl)-8-(phenylamino)imidazo[1,2-b]pyridazine-3-carboxamide]
IC50 [1]: 94 nM

CNc1cc(N[C@H]2CC[C@H](N)CC2)nn2c(C(=O)Nc3cccc(-c4nnn(C(C)C)n4)c3)cnc12 [Example 9, 6-(trans-4-Aminocyclohexylamino)-N-(3-(2-isopropyl-2H-tetrazol-5-yl)phenyl)-8-(methylamino)imidazo[1,2-b]pyridazine-3-carboxamide]
IC50 [1]: 8 nM

CC(C)n1nnc(-c2cccc(NC(=O)c3cnc4ccc(N[C@H]5CC[C@H](N)CC5)nn34)c2)n1 [Example 13, 6-(trans-4-Aminocyclohexylamino)-N-(3-(2-isopropyl-2H-tetrazol-5-yl)phenyl)imidazo[1,2-b]pyridazine-3-carboxamide]
IC50 [1]: 12 nM

Cc1nc(-c2cccc(NC(=O)c3cnc4ccc(N[C@H]5CC[C@H](N)CC5)nn34)c2)co1 [Example 15, 6-(trans-4-Aminocyclohexylamino)-N-(3-(2-methyloxazol-4-yl)phenyl)imidazo[1,2-b]pyridazine-3-carboxamide]
IC50 [1]: 342 nM

N[C@H]1CC[C@H](Nc2cc(NC3CC3)c3ncc(-c4ccsc4)n3n2)CC1 [Example 21, N^6-(trans-4-Aminocyclohexyl)-N^8-cyclopropyl-3-(thiophen-3-yl)imidazo[1,2-b]pyridazine-6,8-diamine]
IC50 [1]: 40 nM

CNc1cc(N[C@H]2CC[C@H](N)CC2)nn2c(-c3ccsc3)cnc12 [Example 20, N^6-(trans-4-Aminocyclohexyl)-N^8-methyl-3-(thiophen-3-yl)imidazo[1,2-b]pyridazine-6,8-diamine]
IC50 [1]: 38 nM

CNc1cc(N[C@H]2CC[C@H](N)CC2)nn2c(C(=O)Nc3cccc(-c4noc(C(C)C)n4)c3)cnc12 [Example 10, 6-(trans-4-Aminocyclohexylamino)-N-(3-(5-isopropyl-1,2,4-oxadiazol-3-yl)phenyl)-8-(methylamino)imidazo[1,2-b]pyridazine-3-carboxamide]
IC50 [1]: 16 nM

CC(C)n1nnc(-c2cccc(NC(=O)c3cnc4c(Nc5ccccc5)cc(N[C@H]5CC[C@H](N)CC5)nn34)c2)n1 [Example 4, 6-(trans-4-Aminocyclohexylamino)-N-(3-(2-isopropyl-2H-tetrazol-5-yl)phenyl)-8-(phenylamino)imidazo[1,2-b]pyridazine-3-carboxamide]
IC50 [1]: 5.1 nM

CC(C)c1nc(-c2cccc(NC(=O)c3cnc4ccc(N[C@H]5CC[C@H](N)CC5)nn34)c2)co1 [Example 14, 6-(trans-4-Aminocyclohexylamino)-N-(3-(2-isopropyloxazol-4-yl)phenyl)imidazo[1,2-b]pyridazine-3-carboxamide]
IC50 [1]: 158 nM

CC(C)c1nnc(-c2cccc(NC(=O)c3cnc4ccc(N[C@H]5CC[C@H](N)CC5)nn34)c2)s1 [Example 12, 6-(trans-4-Aminocyclohexylamino)-N-(3-(5-isopropyl-1,3,4-thiadiazol-2-yl)phenyl)imidazo[1,2-b]pyridazine-3-carboxamide]
IC50 [1]: 9.1 nM

CC(C)c1nc(-c2cccc(NC(=O)c3cnc4ccc(N[C@H]5CC[C@H](N)CC5)nn34)c2)no1 [Example 11, 6-(trans-4-Aminocyclohexylamino)-N-(3-(5-isopropyl-1,2,4-oxadiazol-3-yl)phenyl)imidazo[1,2-b]pyridazine-3-carboxamide]
IC50 [1]: 27 nM

COc1ccc(Nc2cc(N[C@H]3CC[C@H](N)CC3)nn3c(-c4ccsc4)cnc23)cc1 [Example 22, N^6-(trans-4-Aminocyclohexyl)-N^8-(4-methoxyphenyl)-3-(thiophen-3-yl)imidazo[1,2-b]pyridazine-6,8-diamine]
IC50 [1]: 9 nM

N[C@H]1CC[C@H](Nc2cc(Nc3ccccc3)c3ncc(-c4ccsc4)n3n2)CC1 [Example 17, N^6-(trans-4-Aminocyclohexyl)-N^8-phenyl-3-(thiophen-3-yl)imidazo[1,2-b]pyridazine-6,8-diamine]
IC50 [1]: 10 nM

CC(C)c1nc(-c2cccc(NC(=O)c3cnc4c(Nc5ccccc5)cc(N[C@H]5CC[C@H](N)CC5)nn34)c2)no1 [Example 1, 6-(trans-4-Aminocyclohexylamino)-N-(3-(5-isopropyl-1,2,4-oxadiazol-3-yl)phenyl)-8-(phenylamino)imidazo[1,2-b]pyridazine-3-carboxamide]
Response ([2]; 60 mg/kg sc): 59%
IC50 [1]: 10 nM
